Patent US20260250519A1, “Copper Containing Compounds and Compositions for Antimicrobial Paint and Coating” (ARXADA, LLC, priority 2022, published 2026)

Assays:
[1] = system: Escherichia coli (ATCC 8739); test: Modified JIS Z2801, increased inoculum, Quat-containing matte wall paint; assay type: cell-based; settings: Quat 5200 ppm, Cu 0 ppm in matte wall paint
Experimental: (§1) The antibacterial efficacies of copper-containing composition in dry paint film were evaluated using a modified JIS Z2801 method (Antimicrobial Product-Test for Antimicrobial Activity and Efficacy: 2000) by reducing contact time from 24 hour to 2 hour, including Pseudomonas aeruginosa as an additional bacteria and increasing inoculum strength to 5.0 to 10.0×10^7 cfm/mL. […] The paints were brushed onto the sterilized plastic filter paper. Each side of the filter paper was painted twice and the resulting coated paper was dried at ambient condition for 3 days. The dried coatings were then leached against 10 L water for 24 hours (4 water changes for the first 8 hour). Each of three (3) bacterial inoculum (0.4 mL): Escherichia coli (ATCC 8739), Staphylococcus aureus (ATCC 6538), Pseudomonas aeruginosa (ATCC 15442) was used to inoculate the dry film (40 mm×40 mm) of test paint to achieve 5.0 to 10.0×10^7 cfm/mL of inoculum concentration per each bacteria on dry surface of each test paint. The test paints were incubated at 35±1° C. and 90% RH for 2 hour. The degrees of bacterial contamination were determined relative to blank paint via viable cell count of bacteria by agar plate culture method.

[2] = system: Pseudomonas aeruginosa (ATCC 15442); test: as above; assay type: cell-based; settings: Quat 5200 ppm, Cu 0 ppm in matte wall paint
Experimental: as §1

[3] = system: Staphylococcus aureus (ATCC 6538); test: as above; assay type: cell-based; settings: Quat 5200 ppm, Cu 0 ppm in matte wall paint
Experimental: as §1

[4] = system: Pseudomonas aeruginosa (ATCC 15442); test: Interim EPA method with dry and chemical abrasion, Quat-containing matte wall paint; assay type: cell-based; settings: Quat 5200 ppm, Cu 0 ppm; for 2 hr Contact Time % ↓ / 2 hr Contact Time Log10 ↓: relative to uncoated substrate
Experimental: (§2) The antibacterial efficacies of copper-containing composition in dry paint film were evaluated using an interim EPA method (Interim Method for Evaluating the Efficacy of Antimicrobial Surface Coatings: Oct. 2, 2020). […] The paints were drawn-down onto the sterilized steel substrate (1 inch by 1 inch of AISI type 304 stainless steel). The resulting coated substrate was dried at ambient condition for at least 24 hours. Some of the dried coated substrates were further subject to dry and chemical abrasion for 1 week residual efficacy claim. As for dry abrasion, the coated substrate was exposed to 10 cycles of dry abrasion by a Scotch Brite Non-Scratch Scrub Sponge using a BYK Gardner-Scrub machine, each of which comprises 16 single passes. As for chemical abrasion, the scrub sponge was soaked in sodium hypochlorite (2000 ppm NaOCl) solution and EPA-registered Quat-containing Nugen™ MB^5N-256 (256× dilution) disinfectant prior to the abrasion. The coated substrate was exposed to 10 cycles of chemical abrasion by the soaked scrub sponge, each of which comprises 8 single passes. After rinsing and drying to remove the residual NaOCl and Quat, each of two (2) bacterial inoculum ([…]): Staphylococcus aureus (ATCC 6538) and Pseudomonas aeruginosa (ATCC 15442) was used to inoculate the dry film of test paint to achieve 10^4 to 10^5 cfm/carrier of bacteria on dry surface of each test paint. The test paints were incubated at 22° C. and 30-40% RH for 2 hours. The degrees of bacterial contamination were determined via viable cell count for antibacterial efficacy relative to the uncoated substrate.

[5] = system: Staphylococcus aureus (ATCC 6538); test: as above; assay type: cell-based; settings: Quat 5200 ppm, Cu 0 ppm; for 2 hr Contact Time % ↓ / 2 hr Contact Time Log10 ↓: relative to uncoated substrate
Experimental: as §2

[6] = cited from earlier work

Molecule: alkyl (50% C14, 10% C16, 40% C12) dimethyl benzyl ammonium chloride [Quat]
- 2 hr Contact Time Avg [1]: 1.4E+02
- 2 hr Contact Time Log10 [1]: 2.16
- 2 hr Contact Time Avg [2]: 2.9E+05
- 2 hr Contact Time Log10 [2]: 5.46
- 2 hr Contact Time Avg [3]: <1.5E+02
- 2 hr Contact Time Log10 [3]: <2.19
- 2 hr Contact Time Avg ([4]; Dry Abraded): 1.0E+2
- 2 hr Contact Time Log10 ([4]; Dry Abraded): 2.01
- 2 hr Contact Time % ↓ ([4]; Dry Abraded): 99.6285%
- 2 hr Contact Time Log10 ↓ ([4]; Dry Abraded): 2.43
- 2 hr Contact Time Avg ([4]; NaOCl Abraded): 1.4E+0
- 2 hr Contact Time Log10 ([4]; NaOCl Abraded): 0.16
- 2 hr Contact Time % ↓ ([4]; NaOCl Abraded): 99.9994%
- 2 hr Contact Time Log10 ↓ ([4]; NaOCl Abraded): 4.28
- 2 hr Contact Time Avg ([4]; Quat Abraded): 1.1E+2
- 2 hr Contact Time Log10 ([4]; Quat Abraded): 2.06
- 2 hr Contact Time % ↓ ([4]; Quat Abraded): 99.5831%
- 2 hr Contact Time Log10 ↓ ([4]; Quat Abraded): 2.38
- 2 hr Contact Time Avg ([4]; Unexposed): 1.7E+3
- 2 hr Contact Time Log10 ([4]; Unexposed): 3.23
- 2 hr Contact Time % ↓ ([4]; Unexposed): 93.8340%
- 2 hr Contact Time Log10 ↓ ([4]; Unexposed): 1.21
- 2 hr Contact Time Avg ([5]; Dry Abraded): 1.0E+0
- 2 hr Contact Time Log10 ([5]; Dry Abraded): 0.00
- 2 hr Contact Time % ↓ ([5]; Dry Abraded): 99.9990%
- 2 hr Contact Time Log10 ↓ ([5]; Dry Abraded): 5.00
- 2 hr Contact Time Avg ([5]; NaOCl Abraded): 1.0E+0
- 2 hr Contact Time Log10 ([5]; NaOCl Abraded): 0.00
- 2 hr Contact Time % ↓ ([5]; NaOCl Abraded): 99.9990%
- 2 hr Contact Time Log10 ↓ ([5]; NaOCl Abraded): 5.00
- 2 hr Contact Time Avg ([5]; Unexposed): 1.0E+0
- 2 hr Contact Time Log10 ([5]; Unexposed): 0.00
- 2 hr Contact Time % ↓ ([5]; Unexposed): 99.9990%
- 2 hr Contact Time Log10 ↓ ([5]; Unexposed): 5.00

Molecule: On1ccccc1=S.On1ccccc1=S.[Cu] [copper pyrithione]
- solubility [6]: 0.03 µg/mL
